Measured values published in patent publication US20140336182A1, “Aurora Kinase Modulators and Method of Use” (Amgen Inc., priority 2013, published 2014).
Read-outs that look alike come from different tables or passages of the source.

Test system: HeLa cells
Test: HeLa cell 24 hr ploidy assay (DNA content)
Type: cell-based
Conditions: 4N ploidy, average, read-out: 24h_4NPloidy EC50_IP (uM Avg)
Protocol: HeLa cell 24 hr ploidy assay protocol
The purpose of this assay is to evaluate the ability of selected individual compounds to induce Deoxyribonucleic acid (DNA) content (ploidy) in cells through failed cell division. Cell cycle analysis is a rapid and efficient way to evaluate the status of DNA content (ploidy) of a given cell. HeLa cells (1×10^4 HeLa cells/well) in 100 ul of media (MEM+10% FBS) were plated in 96-well plates (Packard View) and cultured for 24 hrs at 37° C. maintained in a 5% CO2 atmosphere. […] The compounds were serially diluted in DMSO (0.25% final concentration). The cells were fixed (3.7% Formaldehyde and 1% glutaraldehyde) and permeabilized (1×PBS with 1% BSA and 0.2% Triton X-100) in preparation for nuclear staining. The well plates were stained for 45 minutes at RT in the dark using Hoechest 33342 nuclear stain at 0.5 ug.ml (Stock of 10 mg/ml, Invitrogen, CA, Cat #H3570). The nuclear stain was removed by aspiration and the cells were washed with wash buffer. A Cellomics Array Scan Vti plate reader was used to acquire the DNA ploidy data of the cells using Cell Cycle bioapplication. Numbers for each of “valid cell count/well”, “% of 4N cells” and “% of >4Ncells” were calculated with the assistance of an Activity Base 5.1ca software and dose curves were generated using an XLFit software. With XLFit, final EC50 IP and EC50 transit values, as well as the Max and Min, were calculated for each curve.

Structure (SMILES)	EC50 (Homo sapiens, HeLa) [µM]	EC50 (Homo sapiens, HeLa, HeLa cells) [µM]	other results
COc1cnc2c(Oc3ccc(Nc4nnc(-c5nccn5C)c5ccccc45)cc3)ccnc2c1 [Example 30, N-(4-(7-methoxy-1,5-naphthyridin-4-yloxy)phenyl)-4-(1-methyl-1H-imidazol-2-yl)phthalazin-1-amine]	–	> 1.2	–
COc1cnc2c(Oc3ccc(Nc4nnc(C#CC(C)(C)C)c5ccccc45)cc3)ccnc2c1 [Example 31, 4-(3,3-dimethylbut-1-ynyl)-N-(4-(7-methoxy-1,5-naphthyridin-4-yloxy)phenyl)phthalazin-1-amine]	–	0.045	–
COc1cnc2c(Oc3ccc(Nc4nnc(N5CCCCCC5)c5ccccc45)cc3)ccnc2c1 [Example 32, 4-(azepan-1-yl)-N-(4-(7-methoxy-1,5-naphthyridin-4-yloxy)phenyl)phthalazin-1-amine]	0.036	–	–
Clc1ccc(-c2nnc(Nc3ccc(Sc4ccnc5cccnc45)cc3)c3ccccc23)cc1 [Example 33, N-(4-(1,5-naphthyridin-4-ylthio)phenyl)-4-(4-chlorophenyl)phthalazin-1-amine]	–	–	EC50 (HeLa cells): 0.002 µM
COc1ccc(-c2nnc(Nc3ccc(Oc4ccnc5cc(OC)cnc45)cc3)c3ccccc23)cc1 [Example 37, N-(4-(7-methoxy-1,5-naphthyridin-4-yloxy)phenyl)-4-(4-methoxyphenyl)phthalazin-1-amine]	0.052	–	–
COc1cnc2c(Oc3ccc(Nc4nnc(-c5ccc(C(C)(C)C)cc5)c5ccccc45)cc3)ccnc2c1 [Example 38, 4-(4-tert-butylphenyl)-N-(4-(7-methoxy-1,5-naphthyridin-4-yloxy)phenyl)phthalazin-1-amine]	0.08	–	–
COc1ccc2c(Oc3ccc(Nc4nnc(-c5ccc(C(F)(F)F)cc5)c5ccccc45)cc3)c(F)cnc2c1 [Example 39, N-(4-(3-fluoro-7-methoxyvquinolin-4-yloxy)phenyl)-4-(4-(trifluoromethyl)phenyl) phthalazin-1-amine]	–	≥ 1.2	–

Now from value to compound, other results behind:

EC50 (Homo sapiens, HeLa) [µM]	EC50 (Homo sapiens, HeLa, HeLa cells) [µM]	Structure (SMILES)	other results
0.442	–	COc1cnc2c(Oc3ccc(Nc4nnc(-c5cccc(C#N)c5)c5ccccc45)cc3)ccnc2c1 [Example 29, 3-(4-(4-(7-methoxy-1,5-naphthyridin-4-yloxy)phenylamino)phthalazin-1-yl)benzonitrile]	–
0.07	–	COc1cnc2c(Nc3ccc(Nc4nnc(-c5ccccc5)c5ccccc45)cc3)ccnc2c1 [Example 40, N′-(7-methoxy-1,5-naphthyridin-4-yl)-N4-(4-phenylphthalazin-1-yl)benzene-1,4-diamine]	–
–	0.195	COc1cnc2c(Oc3ccc(Nc4nnc(-c5ccccc5)c5ccccc45)cn3)ccnc2c1 [Example 41, N-(6-(7-methoxy-1,5-naphthyridin-4-yloxy)pyridin-3-yl)-4-phenylphthalazin-1-amine]	–
–	0.007	c1ccc(-c2nnc(Nc3ccc(Oc4ccnc5cc(N6CCOCC6)ccc45)cc3)c3ccccc23)cc1 [Example 42, N-(4-(7-Morpholinoquinolin-4-yloxy)phenyl)-4-phenylphthalazin-1-amine]	–
–	0.025	CC(=O)Nc1ccc2nccc(Oc3ccc(Nc4nnc(-c5ccccc5)c5ccccc45)cc3)c2c1 [Example 43, N-(4-(4-(4-Phenylphthalazin-1-ylamino)phenoxy)quinolin-6-yl)acetamide]	–
–	> 1.2	N#Cc1cnc2c(Oc3ccc(Nc4nnc(-c5ccccc5)c5ccccc45)cc3)ccnc2c1 [Example 44, 8-(4-(4-phenylphthalazin-1-ylamino)phenoxy)-1,5-naphthyridine-3-carbonitrile]	–
–	0.056	Cn1cc(-c2ccc3nccc(Oc4ccc(Nc5nnc(-c6ccccc6)c6ccccc56)cc4)c3c2)cn1 [Example 45, N-(4-(6-(1-Methyl-1H-pyrazol-4-yl)quinolin-4-yloxy)phenyl)-4-phenylphthalazin-1-amine]	–
0.171	–	NC(=O)c1cc2nccc(Oc3ccc(Nc4nnc(-c5ccccc5)c5ccccc45)cc3)c2s1 [Example 46, 7-(4-(4-phenylphthalazin-1-ylamino)phenoxy)thieno[3,2-b]pyridine-2-carboxamide]	–
